Test results from patent US11149016B2, “S-substituted-2-amino-3-mercaptopropionate derivative, preparation method and application thereof” (JIANGSU TASLY DIYI PHARMACEUTICAL CO., LTD., priority 2016, dated 2021).

Test system: mice with memory disorders caused by scopolamine
Experiment: Passive avoidance (darkroom) test in mice with scopolamine-injured memory
Format: in vivo, ICR mice
Details: for Error times (number of times entering the darkroom within 3 minutes) / Latency (s) of entering the darkroom: intragastric, 7 days, scopolamine 3 mg/kg 20 minutes before testing, x ± s, n = 10; for Activity compared with SPRC (in words) / Effect on error times of mice with memory impairment entering the darkroom (in words) / Effect on latency of mice with memory impairment entering the darkroom (in words): passive avoidance test, scopolamine model
From the text: Memory functions of mice are injured by scopolamine, and effects of improvement of tested materials on the memory functions of the mice are observed.
Animals: ICR mice, male, 20-22 g, purchased from Institute for Experimental Animals in Chinese Academy of Medical Sciences, certification number: SCXK (JING) 2014-0004.
Agent: scopolamine (J&K Company), donepezil reagent (TCI Company).
Tested materials: 4 tested materials and a positive-drug donepezil are provided by Tasly Group. Dosage of administration: administered by tested materials according to 80 mg/kg weight, administered by donepezil according to 5 mg/kg weight, an administration volume of 2 ml.
purchasing 60 mice, and enabling the mice to adapt to an environment for three days; dividing the mice into 6 groups randomly, wherein a blank control group includes 10 mice, the rest mice are contained in administration groups, and each administration group includes 10 mice; respectively administering the tested materials and positive drug, performing intragastric administration for 7 days, putting the mice into a darkroom to adapt to the environment on the fifth day during administration, electrifying the darkroom on the sixth day during administration, training the mice to elude the darkroom, and training each mouse once; testing on the seventh day, administering with scopolamine by 3 mg/kg within 20 minutes before testing, and recording time of the mice entering the darkroom for the first time and a number of times of the mice entering the darkroom within 3 minutes during testing.
Passive avoidance response is a common method used commonly to detect learning and memory functions of small animals. With respect to a passive avoidance test, by means of a feature that rodents like darkness and keep in a dark place, the rodents are stimulated in the dark to escape to a bright place to acquire memory, and the passive avoidance test is a type of passive avoidance response experiments. The passive avoidance test has a short experimental period and is applicable to rapid drug screening. The scopolamine may inhibit release of acetyl choline, so as to form learning and memory disorders. The passive avoidance test is a stable learning and memory disorder modeling method and has excellent model reproducibility.

[1] = positive drug donepezil 5 mg/kg
[2] = tested materials 80 mg/kg, time of first entry into darkroom

| Compound | Error times (number of times entering the darkroom within 3 minutes) [1] | Latency (s) of entering the darkroom [1] | Latency (s) of entering the darkroom [2] | Error times (number of times entering the darkroom within 3 minutes) (tested materials 80 mg/kg) | Activity compared with SPRC (in words) | Effect on error times of mice with memory impairment entering the darkroom (in words) | Effect on latency of mice with memory impairment entering the darkroom (in words) |
| --- | --- | --- | --- | --- | --- | --- | --- |
| COc1cc2c(cc1OC)C(=O)C(CC1CCN(Cc3ccccc3)CC1)C2 (centres unmarked) [Donepezil, donepezil, reference compound] | 6.8 ± 5.4 | 49.5 ± 71.6 s | – | – | – | – | – |
| C#CCSC[C@H](N)C(=O)O [SPRC, S-propargyl-cysteine, reference compound] | – | – | 50.5 ± 69.7 s | 3.8 ± 4.0 | – | – | – |
| C#CCSCC(N)C(=O)Oc1ccc(-c2cc(=S)ss2)cc1 (centres unmarked) [Va, 2-amino-3-propinylmercaptopropionic acid-4-(3-thio-3H-1,2-dithio-5-alkenyl) phenol ester] | – | – | 55.8 ± 61.3 s | 4.7 ± 4.6 | – | – | – |
| C#CCSCC(N)C(=O)OCc1ccc(OC(=O)C(N)CSCC#C)cc1 (centres unmarked) [Vd, bis(2-amino-3-propinylmercaptopropionic acid)-4-benzyl alcohol-1-phenol diester] | – | – | 63.6 ± 69.5 s | 2.6 ± 3.3 | obviously better than the activity of the SPRC | trend of decreasing the error times | trend of increasing the latency |
| C#CCSCC(N)C(=O)OCCCC[N+](=O)[O-] (centres unmarked) [Vf, 2-amino-3-propinylmercaptopropionic acid-4-nitro-1-butanol ester] | – | – | 60.2 ± 61.3 s | 2.4 ± 2.3 | obviously better than the activity of the SPRC | trend of decreasing the error times | trend of increasing the latency |
| C#CCSCC(N)C(=O)Oc1ccc(CO)cc1 (centres unmarked) [Vc, 2-amino-3-propinylmercaptopropionic acid-4-benzyl alcohol phenol ester] | – | – | 66.8 ± 57.1 s | 2.4 ± 1.3 | obviously better than the activity of the SPRC | trend of decreasing the error times | trend of increasing the latency |
| C#CCSCC(N)C(=O)Oc1ccc(C=O)cc1 (centres unmarked) [Vb, 2-amino-3-propinylmercaptopropionic acid-4-formyl phenol ester] | – | – | 53.2 ± 59.4 s | 4.1 ± 3.7 | – | – | – |
